In article PMC9226319, “Peripherally restricted transthyretin-based delivery system for probes and therapeutics avoiding opioid-related side effects” (Nature Communications, 2022):
“And” between values parts separate entries of the source, which are not always exact repeats. Equal entries are not always repeated. Where two headings read alike, the source gives them in different places.

Assays:
TTR in human serum = TTR in human serum (Homo sapiens, UniProt P02766); assay: TTR serum fluorescent probe exclusion (FPE) selectivity assay; assay type: binding; conditions: ligand 10 µM; for %FPE probe fluorescence: human serum, replicates
[1] = rat, single SC dose 16 µmol/kg
[2] = rat, single IV bolus 4.84 µmol/kg
in vivo [3] = conditions: male, Sprague Dawley, rat, sc, 16 umol/kg
in vivo [4] = conditions: male, Sprague Dawley, rat, iv, 4.84 umol/kg
male Sprague-Dawley rats [5] = assay: Gastrointestinal (GI) transit (charcoal meal) assays; assay type: in vivo, rat; conditions: rat, in vivo
male Sprague-Dawley rats [6] = conditions: rat, in vivo

Cc1n[nH]c(C)c1CCCOc1cc(C(=O)O)ccc1F [AG10, reference compound]
% TTR occupancy in human serum (TTR in human serum; FPE probe 3.6 µM, 3 h reading relative to probe alone, text mean ± s.d., table replicates): 97.40% and 95.62% and 96.92% and 97.81%
%FPE probe fluorescence (TTR in human serum; time 0.000 h): 0.000%
%FPE probe fluorescence (TTR in human serum; time 0.083 h): 0.700% and 0.333% and 1.346% and -0.971%
%FPE probe fluorescence (TTR in human serum; time 0.250 h): 0.446% and 0.461% and 3.649% and -0.301%
%FPE probe fluorescence (TTR in human serum; time 0.500 h): -1.954% and 0.832% and 3.724% and 2.441%
%FPE probe fluorescence (TTR in human serum; time 1.000 h): -0.363% and 4.377% and 2.966% and 3.350%
%FPE probe fluorescence (TTR in human serum; time 1.250 h): 2.954% and 2.394% and 3.246% and -1.477%
%FPE probe fluorescence (TTR in human serum; time 1.500 h): 2.170% and 0.641% and 2.641% and 0.126%
%FPE probe fluorescence (TTR in human serum; time 1.750 h): 0.743% and 3.255% and 1.620% and 2.521%
%FPE probe fluorescence (TTR in human serum; time 2.000 h): 4.231% and 0.837% and 2.557% and 0.855%
%FPE probe fluorescence (TTR in human serum; time 2.250 h): 5.793% and 2.286% and 2.057% and 0.029%
%FPE probe fluorescence (TTR in human serum; time 2.500 h): 6.054% and 2.118% and 3.144% and 0.438%
%FPE probe fluorescence (TTR in human serum; time 2.750 h): 2.727% and 2.921% and 3.595% and 1.032%
%FPE probe fluorescence (TTR in human serum; time 3.000 h): 2.597% and 4.380% and 3.077% and 2.193%
%FPE probe fluorescence (TTR in human serum; time 3.500 h): 3.724% and 3.796% and 4.505% and 2.484%
%FPE probe fluorescence (TTR in human serum; time 3.750 h): 3.879% and 3.578% and 5.075% and 1.835%
%FPE probe fluorescence (TTR in human serum; time 4.000 h): 3.514% and 5.359% and 4.237% and 1.611%
%FPE probe fluorescence (TTR in human serum; time 4.250 h): 3.887% and 3.398% and 4.915% and 2.063%
%FPE probe fluorescence (TTR in human serum; time 4.500 h): 4.733% and 4.892% and 5.145% and 3.486%
%FPE probe fluorescence (TTR in human serum; time 4.750 h): 6.115% and 5.517% and 7.470% and 4.138%
%FPE probe fluorescence (TTR in human serum; time 5.000 h): 6.088% and 5.023% and 7.566% and 3.162%
%FPE probe fluorescence (TTR in human serum; time 5.250 h): 5.909% and 5.424% and 7.406% and 4.467%
%FPE probe fluorescence (TTR in human serum; time 5.500 h): 6.587% and 5.102% and 7.881% and 3.568%
%FPE probe fluorescence (TTR in human serum; time 5.750 h): 6.453% and 4.461% and 7.648% and 5.604%
%FPE probe fluorescence (TTR in human serum; time 6.000 h): 4.737% and 6.705% and 8.837% and 3.939%

C=CCN1CC[C@]23c4c5ccc(O)c4O[C@H]2C(=O)CC[C@@]3(O)[C@H]1C5 [Naloxone, reference compound]
k [1]: 1.03 ± 0.1 h⁻¹
k [2]: 0.81 ± 0.13 h⁻¹
AUC(0-inf) (in vivo [3]): 1.76 ± 0.237 µM·h
CL/F (in vivo [3]): 152 mL/min/kg
Vd/F (in vivo [3]): 8.94 ± 2.08 L/kg
half-life (in vivo [3]): 40.2 ± 4.2 min
AUC(0-inf) (in vivo [4]): 1.46 ± 0.257 µM·h
Vd (in vivo [4]): 1.23 ± 0.42 L/kg
clearance (in vivo [4]): 56.5 mL/min/kg
half-life (in vivo [4]): 52.2 ± 7.8 min

COc1ccc2c3c1O[C@H]1C(=O)CC[C@@]4(O)[C@@H](C2)N(C)CC[C@]314 [Oxycodone, reference compound]
GI transit (% of vehicle) (male Sprague-Dawley rats [5]): 18.7 ± 3.0%
constipation (GI transit) (male Sprague-Dawley rats [5]): did not result in significant analgesia or constipation
GI transit (% of vehicle) (male Sprague-Dawley rats [5]; sc): 8.0 ± 2.7%
GI transit as % of vehicle group (male Sprague-Dawley rats [5]; sc): 4.72% and 11.93% and 8.19% and 6.37% and 8.96%
k [1]: 0.9 ± 0.12 h⁻¹
AUC(0-inf) (in vivo [3]): 4.85 ± 0.676 µM·h
CL/F (in vivo [3]): 55.3 mL/min/kg
half-life (in vivo [3]): 46.8 ± 5.4 min
analgesia (hot plate) (male Sprague-Dawley rats [6]): did not result in significant analgesia or constipation
analgesic effect 1 hour after ICV dosing (male Sprague-Dawley rats [6]): no analgesic effect
hot plate latency (male Sprague-Dawley rats [6]; sc): 56.8 ± 3.8 s
